Experimental data reported in US20260256833A1, “USE OF BORON FOR THE TREATMENT OF LEISHMANIASIS DISEASE” (YEDITEPE UNIVERSITESI, priority 2023, published 2026).
Like-named read-outs stand apart in the source and are kept apart here.

Key:
[1] = tested on: L. infantum promastigotes; experiment: Phase-contrast and SEM morphology of parasites; type: cell-based, Leishmania infantum; details: 24 and 48 hours of incubation with SPT
Protocol: In parallel to this, Leishmania parasites incubated with SPT at different concentrations were morphologically examined under scanning electron microscopy.

[2] = tested on: macrophages infected with L. infantum; experiment: Infection rate of infected macrophages by flow cytometry; type: cell-based, Leishmania infantum; details: SPT 50, 75, 100, 150, 200 and 400 μM; 24, 48 and 72 hours
Protocol: RAW264.7 macrophage cells and L. infantum promastigotes were stained with PKH26 (Red Fluorescent Cell Linker Kit, Sigma-Aldrich) and PKH67 (Green Fluorescent Cell Linker Kit, Sigma-Aldrich), respectively, according to the procedure described previously in the article by Islek et al. (2021). A total cell concentration of 10^7 cells/ml was used. Before infection, the staining rate of parasites and cells was determined by flow cytometry.
The effect of SPT on the proliferation of macrophage cells infected with parasites is analyzed. In summary, macrophages are infected with parasites at 37° C. at a ratio of 10:1 (parasite: macrophage). After 3 and a half hours, infected macrophages are washed with medium to remove the remaining parasites. Infected macrophages are left to incubate with SPT at different concentration ranges at 37° C. for 3 days, fixed at the end of 3 days and the infection rate is determined by flow cytometer. The percentage of infection is determined according to the following formula: […]

[3] = tested on: Leishmania infantum (MHOM/MA/67/ITMA-P263) promastigotes; experiment: Resazurin / Alamar Blue viability assay on promastigotes; type: cell-based; details: for parasite viability: SPT above 100 μM
Protocol: Leishmania infantum (MHOM/MA/67/ITMA-P263) promastigotes are incubated in RPMI medium (heat inactivated 10% fetal bovine serum, 2 mM L-glutamine, 20 mM HEPES, 100 U/ml penicillin, 100 μg/ml streptomycin) at 27° C. Parasites reaching the logarithmic phase (10^6/ml) are made infective.
Leishmania parasites are incubated in culture medium and the effect of SPT on the proliferation of their promastigotes is analyzed. In summary, Leishmania infantum (MHOM/MA/67/ITMA-P263) promastigotes are incubated in RPMI medium (heat inactivated 10% fetal bovine serum, 2 mM L-glutamine, 20 mM Hepes, 100 U/ml penicillin, 100 μg/ml streptomycin) at 27° C. […] The viability of the parasites is determined by applying Alamar Blue assay. By obtaining IC50 values from the samples whose fluorescence intensities are read according to the Alamar Blue assay protocol, the activities of SPT are determined.

[4] = tested on: L. infantum promastigotes; experiment: Mitochondrial membrane potential, Rhodamine 123; type: cell-based, Leishmania infantum
Protocol: Mitochondrial membrane potential (ΔΨPm) is measured by using Rhodamine 123 mitochondrial specific fluorescent dye (Sigma-Aldrich). In summary, cells were seeded in a 48-well plate at 300.000 parasites/well. The following day, parasites are treated with SPT at various concentrations (50-400 uM) for 24 and 48 hours. After incubation, cells are resuspended in serum-free RPMI containing 10 μM Rhodamine 123 and incubated in the dark at 37-C for 30 minutes. They are then centrifuged and washed twice with 1×DPBS. The cell suspension is transferred to a 96-well plate and fluorescence intensities are measured at 490 nm excitation and 515 nm emission by using a spectrophoto-fluorimeter (Varioskan LUX multimode reader, Thermo Scientific). Absorbance is evaluated as a fold change with respect to the negative control group.

leishmaniasis = details: cited from earlier work

With `O.O.O.O.[Na+].[O-]B1OO1` [SPT, sodium perborate tetrahydrate] the “cell number and morphology by microscopy” value [1] was “dose-dependent decrease in cell number”, the infection rate [2] was “infection rate did not increase regardless of time and concentration” and the IC50 ([3]; 72 hours) was 72 ± 7.51 µM. For the same compound, the cell viability ([3]; SPT 75 μM, 24 hours) was “below 80%”, the cell viability ([3]; SPT 75 μM, 48 hours) was < 55% and the viability of promastigotes ([3]; SPT 75 μM, 72 hours) was 50%. The “reduction in parasite viability” value ([3]; SPT 100, 125, 150 and 200 μM, 72 hours) was “approximately 80%”, the parasite viability ([3]; 24 hours) was < 33% and the parasite viability ([3]; 48 hours) was < 25%. The cell viability ([3]; SPT ≤50 uM, 24, 48 and 72 hours) was “above 80%”, the mitochondrial membrane potential ([4]; SPT 100 μM, 24 hours) was 52.2% and the mitochondrial membrane potential ([4]; SPT 100 μM, 48 hours) was 32.8%. It also gave a mitochondrial membrane potential ([4]; SPT 150 μM, 24 hours) of 39.1%, a mitochondrial membrane potential ([4]; SPT 150 μM, 48 hours) of 34.1% and a mitochondrial membrane potential ([4]; SPT 200 μM, 24 hours) of 57.5%. For the same compound, the mitochondrial membrane potential ([4]; SPT 200 μM, 48 hours) was 41.5%, the mitochondrial membrane potential ([4]; SPT 400 μM, 24 hours) was 44.6% and the mitochondrial membrane potential ([4]; SPT 400 μM, 48 hours) was 30.1%. For the same compound, the “percentage of mitochondrial membrane potential” value ([4]; SPT ≤75 uM, 24 and 48 hours) was “above 80%”, the mitochondrial membrane potential ([4]; SPT ≥100 μM, 24 hours) was “below 53%” and the mitochondrial membrane potential ([4]; SPT ≥100 μM, 48 hours) was “below 35%”.

For `CCCCCCCCCCCCCCCCOP(=O)([O-])OCC[N+](C)(C)C` [Miltefosine], the “cure (comparison data)” value (leishmaniasis; miltefosine data compared with 6-month Amphotericin B therapy) is given as 94% and the cure level (leishmaniasis; oral, 3-4-week treatment) is given as 95-100%.

In the case of `C[C@@H]1[C@H](O)[C@@H](C)/C=C/C=C/C=C/C=C/C=C/C=C/C=C/[C@H](O[C@@H]2O[C@H](C)[C@@H](O)[C@H](N)[C@@H]2O)C[C@@H]2O[C@](O)(C[C@@H](O)C[C@@H](O)[C@H](O)CC[C@@H](O)C[C@@H](O)CC(=O)O[C@H]1C)C[C@H](O)[C@H]2C(=O)O` [Amphotericin B], the “cure (comparison data)” value (leishmaniasis; 6-month therapy) is listed as 97% and the cure rate (leishmaniasis; cases where antimonial resistance is observed) is listed as ~100%.
